# Test system: labile Cu(I) pools in HEK 293T cells
# Experiment: Ratiometric confocal fluorescence imaging of labile Cu(I) in HEK 293T cells
# Assay type: cell-based, Human
# Procedure: (A) Confocal fluorescence microscopy images of HEK 293T cells pretreated with solvent vehicle control or varying concentrations of CuCl2 in complete medium for 18 h. The cells were then washed with PBS, incubated with FCP-1 (5 μM) in DPBS for 45 min and then imaged. (B) Average cellular ratiometric emission ratios, represented by Fgreen/Forange, as determined from imaging experiments in (A) performed in triplicate. (C) Confocal fluorescence microscopy images of HEK 293T cells pretreated with solvent vehicle control or BCS (100 μM) in complete medium for 18 h. The cells were then washed with PBS, incubated with FCP-1 (5 μM) in DPBS for 45 min and then imaged. (D) Average cellular ratiometric emission ratios of FCP-1, Fgreen/Forange, as determined from experiments in (C) performed in triplicate. […] (E) ICP-MS measurement to determine total cellular ^63Cu levels in HEK293T cells under copper supplementation and depletion relative to the control (with normalization of different cell numbers by total cellular ^31P level). Error bars denote standard derivation (SD; n=3). *p<0.05, **p<0.01, ***p<0.001, ****p<0.0001 and *****p<0.00001.
# Cell culture. Following cell cultures were grown: Human embryonic kidney (HEK 293T) cells were maintained in Dulbecco's Modified Eagle Medium (DMEM) supplemented with 10 vol % fetal bovine serum (FBS), 1 vol % GlutaMax (Gibco) and 1 vol % non-essential amino acids (NEAA, Gibco). Ctrl1^+/+ and Ctr1^−/− MEF cells were maintained in DMEM with 10 vol % FBS, 1 vol % non-essential amino acids, 1 vol % sodium pyruvate and 0.1 vol % 2-mercaptoethanol or DMEM supplemented with 10 vol % FBS and 1× Penicillin-Streptomycin. Human cervical epithelial carcinoma (HeLa) was maintained in DMEM medium supplemented with 1 vol % GlutaMAX and 10 vol % FBS. […]
# Confocal fluorescence microscopy imaging. For confocal fluorescence imaging experiments of HEK293T, MEF Ctr1^+/+ and Ctr1^−/− and HeLa cells, the cells were plated on 8-well Lab Tek borosilicate chambered coverglass slides (Nunc), and allowed to grow to ca. 60% confluency before performing the cell imaging experiments. […] For quantification, a threshold value was set as background and the average intensity of the whole image was measured by ImageJ. […]
# Given the metal and oxidation state-selective and sensitive response of FCP-1 to Cu(I), this probe was examined for ratiometric fluorescence imaging of labile Cu(I) pools in living cells. […] The observed increases and decreases in labile Cu(I) levels upon copper supplementation (CuCl2) and copper depletion (BCS) treatments, respectively, as measured by FCP-1 imaging were supported by complementary ICP-MS measurements of total copper levels showing expected increases and decreases in the total copper pool (FIG. 9, panel C).
smiles,measurement,setting,value
CC[N+](CC)=c1ccc2c(-c3ccccc3C(=O)O)c3ccc(N4CCN(Cc5cccc(CN(Cc6ccccn6)Cc6cccc(COc7ccc8c(-c9ccccc9C(=O)OC)c9ccc(=O)cc-9oc8c7)n6)n5)CC4)cc3oc-2c1 [FCP-1],Fgreen/Forange ratio in copper-deficient cells compared to control,"BCS 100 μM pretreatment, FCP-1 5 μM",statistically significant decrease
same,Fgreen/Forange ratio in copper-supplemented cells over vehicle control,"CuCl2 25-300 μM pretreatment, FCP-1 5 μM 45 min","statistically significant, dose-dependent increase"
same,cell viability by nuclear staining,"FCP-1 5 μM, DRAQ-5 (FIGS. 10-11)",remained viable

# Reference: patent publication US12241902B2, “Probes for detection of copper” (The Regents of the University of California, priority 2019, dated 2025)
